Reference: patent US9232796B2, “Herbicidal compositions comprising 4-amino-3-chloro-5-fluoro-6-(4-chloro-2-fluoro-3-methoxyphenyl) pyridine-2-carboxylic acid or a derivative thereof and acetyl-CoA carboxylase (ACCase) inhibitors” (DOW AGROSCIENCES LLC, priority 2012, dated 2016)
Where “and” joins values, the source holds several entries; their conditions need not be identical. Equal entries are not always repeated.

How the values were obtained:
ECHOR [1] = test: Example VI in-water applied ternary mixtures, greenhouse, transplanted paddy rice weeds; type: in vivo, Echinochloa oryzoides (Ard.) Fritsch
Experimental: Weed seeds or nutlets of the desired test plant species were planted in puddled soil (mud) prepared by mixing a shredded, non-sterilized mineral soil (50.5 percent silt, 25.5 percent clay, and 24 percent sand, with a pH of about 7.6 and an organic matter content of about 2.9 percent) and water at a 1:1 volumetric ratio. The prepared mud was dispensed in 365 mL aliquots into 16-ounce (oz.) non-perforated plastic pots with a surface area of 86.59 square centimeters (cm^2) leaving a headspace of 3 centimeters (cm) in each pot. Mud was allowed to dry overnight prior to planting or transplanting. Rice seeds were planted in Sun Gro MetroMix® 306 planting mixture, which typically has a pH of 6.0 to 6.8 and an organic matter content of about 30 percent, in plastic plug trays. Seedlings at the second or third leaf stage of growth were transplanted into 860 mL of mud contained in 32-oz. non-perforated plastic pots with a surface area of 86.59 cm^2 4 days prior to herbicide application. The paddy was created by filling the headspace of the pots with 2.5 to 3 cm of water. When required to ensure good germination and healthy plants, a fungicide treatment and/or other chemical or physical treatment was applied. The plants were grown for 4-22 days in a greenhouse with an approximate 14 hr. photoperiod which was maintained at about 29° C. during the day and 26° C. during the night. Nutrients were added as Osmocote® (19:6:12, N:P:K+minor nutrients) at 2 g per 16-oz. pot and 4 g per 32-oz. pot. Water was added on a regular basis to maintain the paddy flood, and supplemental lighting was provided with overhead metal halide 1000-Watt lamps as necessary. The plants were employed for testing when they reached the first through fourth true leaf stage.
Treatments consisted of the benzyl ester of 4-amino-3-chloro-5-fluoro-6-(4-chloro-2-fluoro-3-methoxy-phenyl)pyridine-2-carboxylic acid (Compound A), formulated as an SC (suspension concentrate), an ACCase inhibitor herbicide, and a third herbicidal component, each applied alone and in ternary combination. Forms of compound A were applied on an acid equivalent basis.
The ACCase inhibitor component was applied on an active ingredient basis and included cyhalofop-R-butyl formulated as Clincher® G and metamifop formulated as Metamifop EC. Other herbicidal components were applied on an active ingredient or acid equivalent basis depending on the compound and included penoxsulam formulated as Grasp® SC, bentazon sodium formulated as Basagran®, triclopyr […] (TEA) salt formulated as Grandstand® R, benzobicyclon formulated as Benzobicyclon, benfuresate formulated as Full Slot® WG, pyraclonil formulated as Pyraclon® Flowable, mefenacet (technical grade material), and pretilachlor (technical grade material).
Treatment requirements for each compound or herbicidal component were calculated based upon the rates being tested, the concentration of active ingredient or acid equivalent in the formulation, an application volume of 1 mL per component per pot, and an application area of 86.59 cm^2 per pot.
For formulated compounds, a measured amount was placed in an individual 100 or 200 mL glass vial and was dissolved in a volume of 1.25% (v/v) Agri-Dex® crop oil concentrate to obtain application solutions.
For technical grade compounds, a weighed amount was placed in an individual 100 to 200 mL glass vial and was dissolved in a volume of acetone to obtain concentrated stock solutions.
Applications were made by injecting with a pipetter appropriate amounts of the application solutions, into the aqueous layer of the paddy. Control plants were treated in the same manner with the solvent blank. Applications were made so that all treated plant material received the same concentrations of acetone and crop oil concentrate.
The treated plants and control plants were placed in a greenhouse as described above and water was added as needed to maintain a paddy flood. […]

ECHOR [2] = test: Example V (second) postemergence foliar-applied ternary mixtures, greenhouse, direct seeded rice weeds; type: in vivo, Echinochloa oryzoides (Ard.) Fritsch
Experimental: Seeds or nutlets of the desired test plant species were planted in a soil matrix prepared by mixing a sandy loam or loam soil (e.g., 32 percent silt, 23 percent clay, and 45 percent sand, with a pH of about 6.5 and an organic matter content of about 1.9 percent) and calcareous grit in an 80 to 20 ratio. The soil matrix was contained in plastic pots with a volume of 1 quart and a surface area of 83.6 square centimeters (cm^2). […] The plants were grown for 8-22 days in a greenhouse with an approximate 14 hr. photoperiod which was maintained at about 29° C. during the day and 26° C. during the night. Nutrients (Peters Excel® 15-5-15 5-Ca 2-Mg and iron chelate) were applied in the irrigation solution as needed and water was added on a regular basis. Supplemental lighting was provided with overhead metal halide 1000-Watt lamps as necessary. The plants were employed for testing when they reached the first through fourth true leaf stage.
Treatments consisted of the benzyl ester of 4-amino-3-chloro-5-fluoro-6-(4-chloro-2-fluoro-3-methoxy-phenyl)pyridine-2-carboxylic acid (Compound A), formulated as an SC (suspension concentrate), an ACCase inhibitor, and a third herbicidal component, each applied alone and in ternary combination. Forms of compound A were applied on an acid equivalent basis.
For treatments comprised of formulated compounds, measured amounts of compounds were placed individually in 25 mL glass vials and diluted in a volume of 1.25% (v/v) Agri-Dex® crop oil concentrate to obtain 12× stock solutions. […] Application solutions were prepared by adding an appropriate amount of each stock solution (e.g., 1 mL) and diluted to the appropriate final concentrations with the addition of 9 mL of an aqueous mixture of 1.25% (v/v) crop oil concentrate so that the final spray solutions contained 1.25% (v/v) crop oil concentrate.
As required, additional water and/or 97:3 v/v acetone/DMSO was added to individual application solutions so that the final acetone and DMSO concentrations of the application solutions being compared were 8.1% and 0.25%, respectively.
All stock solutions and applications solutions were visually inspected for compound compatibility prior to application. Spray solutions were applied to the plant material with an overhead Mandel track sprayer equipped with a 8002E nozzles calibrated to deliver 187 L/ha over an application area of 0.503 m^2 at a spray height of 18 inches (46 cm) above average plant canopy height. Control plants were sprayed in the same manner with the solvent blank.
The treated plants and control plants were placed in a greenhouse as described above and watered by sub-irrigation to prevent wash-off of the test compounds. After approximately 3 weeks, the condition of the test plants as compared with that of the untreated plants was determined visually and scored on a scale of 0 to 100 percent where 0 corresponds to no injury or growth inhibition and 100 corresponds to complete kill.
Colby's equation was used to determine the herbicidal effects expected from the mixtures (Colby, S. R. 1967. Calculation of the synergistic and antagonistic response of herbicide combinations. Weeds 15:20-22.).
The following equation was used to calculate the expected activity of mixtures containing three active ingredients, A, B, and C: Expected=A+B+C−((A×B+A×C+B×C)/100)+(A×B×C/10000)

COc1c(Cl)ccc(-c2nc(C(=O)OCc3ccccc3)c(Cl)c(N)c2F)c1F [Compound A Benzyl Ester, benzyl ester of 4-amino-3-chloro-5-fluoro-6-(4-chloro-2-fluoro-3-methoxy-phenyl)pyridine-2-carboxylic acid] was tested, and the “Visual Weed Control (%) - 24 DAA ECHOR Obs” value (ECHOR [1]; Table 67, 4 gae/ha) was 0%, the “Visual Weed Control (%) - 24 DAA ECHOR Obs” value (ECHOR [1]; Table 67, 8 gae/ha) was 0% and the “Visual Weed Control (%) - 24 DAA ECHOR Obs” value (ECHOR [1]; Table 67, 16 gae/ha) was 10%. The “Visual Weed Control (%) - 24 DAA ECHOR Obs” value (ECHOR [1]; Table 71, 8 gae/ha) was 10%, the “Visual Weed Control (%) - 24 DAA ECHOR Obs” value (ECHOR [1]; Table 71, 16 gae/ha) was 25% and the “Visual Weed Control (%) - 22 DAA ECHOR Obs” value (ECHOR [2]; 8 gae/ha) was 13% and 25%. The “Visual Weed Control (%)- 22 DAA ECHOR Obs” value (ECHOR [2]; 8 gae/ha) was 13%, the “Visual Weed Control (%) - 22 DAA ECHOR Obs” value (ECHOR [2]; 16 gae/ha) was 35% and the “Visual Weed Control (%)- 22 DAA ECHOR Obs” value (ECHOR [2]; 16 gae/ha) was 40%.

With CCCCOC(=O)[C@@H](C)Oc1ccc(Oc2ccc(C#N)cc2F)cc1 [Cyhalofop-butyl, butyl(2R)-2-[4-(4-cyano-2-fluorophenoxy)phenoxy]propanoate, reference compound] the “Visual Weed Control (%) - 24 DAA ECHOR Obs” value (ECHOR [1]; Table 67, 90 gai/ha) was 25%, the “Visual Weed Control (%)- 22 DAA ECHOR Obs” value (ECHOR [2]; 17.5 gai/ha) was 0% and the “Visual Weed Control (%) - 22 DAA ECHOR Obs” value (ECHOR [2]; 35 gai/ha) was 15%. For the same compound, the “Visual Weed Control (%)- 22 DAA ECHOR Obs” value (ECHOR [2]; 35 gai/ha) was 15%.

For C[C@@H](Oc1ccc(Oc2nc3ccc(Cl)cc3o2)cc1)C(=O)N(C)c1ccccc1F [Metamifop, (2R)-2-[4-[(6-chloro-2-benzoxazolyl)oxy]phenoxy]-N-(2-fluorophenyl)-N-methylpropanamide], the “Visual Weed Control (%) - 24 DAA ECHOR Obs” value (ECHOR [1]; Table 71, 25 gai/ha) was 10% and the “Visual Weed Control (%) - 24 DAA ECHOR Obs” value (ECHOR [1]; Table 71, 50 gai/ha) was 18%.

With CCC/C(=N\OCC(C)Oc1ccc(Cl)cc1)C1=C(O)CC(C2CCCSC2)CC1=O (stereo not shown) [Profoxydim, 2-[1-[[2-(4-chlorophenoxy)propoxy]imino]butyl]-3-hydroxy-5-(tetrahydro-2H-thiopyran-3-yl)-2-cyclohexen-1-one, reference compound] the “Visual Weed Control (%) - 22 DAA ECHOR Obs” value (ECHOR [2]; 3.12 gai/ha) was 0%.
